Results on 1 compound are retold here after patent publication US12648924B2, “Prevention and treatment of effects of aging and age-associated disorders with ketone supplementation” (priority 2020, dated 2026).

The structures appear in SMILES notation.

Holding throughout (type): in vivo, VM/Dk mice
One assay has as its system VM-M3 cells. The assay can be described thus: KDE in VM-M3 model of cancer anorexia cachexia syndrome (Experiment 4c). Conditions: 30% KDE in diet. The source says:
Animals: Five breeding pairs of the VM/Dk strain of mice were used to establish and propagate a VM/Dk mouse colony in the University of South Florida (USF) Morsani College of Medicine Vivarium according to standard husbandry protocol. Male and female VM/Dk mice between 10-23 weeks of age were singly housed to accurately assess individual animal food intake. Bodyweight and food intake were tracked daily prior to and post-social isolation to ensure bodyweight and food intake normalized prior to cell inoculation (Table 1). Animals were distributed into one of four groups: Sham Male (SH-M), Sham Female (SH-F), Cancer Male (CA-M), and Cancer Female (CA-F). Each cancer animal was matched with a sham animal of equivalent sex, bodyweight, age, and food intake (FIGS. 8A-8B) to ensure appropriate cancer and sex-specific comparisons. To determine KDE-induced effects in CACS, VM/Dk animals were distributed into one of three groups: KDE+VM-M3, VM-M3, and Sham with equivalent sex, bodyweight, age and food intake at baseline (FIG. 13A). One premature death occurred in SH-F (Experiment 1a) and Sham (Experiment 4c) groups immediately post-inoculation. To determine KDE-induced effects post-LPS administration, VM/Dk animals were distributed into two groups (FIGS. 14A-14B): KDE+LPS and LPS of equivalent bodyweights. All procedures were approved by the USF Institutional Animal Care and Use Committee (USF IACUC; Protocol Number R1900 & R5829) and performed under strict adherence to the NIH Guide for the Care and Use of Laboratory Animals.
VM-M3 Cell and Lipopolysaccharide Implantation: For VM-M3 implantation in the model characterization experiments (FIG. 1-5; FIG. 8-12), ˜1×10^6 VM-M3 cells (T. Seyfried, Boston College) in 300 μL sterile PBS (CA-M and CA-F) or 300 μL sterile PBS-only (SH-M and SH-F) were injected subcutaneously into the left abdominal flank resulting in primary tumor formation at the injection site, and subsequently systemically metastasizes to most major organs, namely the liver, kidneys, spleen, lungs, and brain. […] This method of implantation further minimized variability in markers of tumor progression, and therefore provides a useful optional method technique in the VM-M3 model for efficient analysis of potential therapeutic agents. To determine KDE-induced effects on CACS, 1×10^6 VM-M3 cells in 300 μL sterile PBS (KDE+VM-M3 and VM-M3) or 300 μL sterile PBS-only (Sham) were administered intraperitoneally (FIG. 6; FIG. 13). For LPS administration in the septic atrophy model, LPS (Escherichia coli 055:B5; L2880; Sigma-Aldrich, St. Louis, MO) was diluted in sterile PBS and administered intraperitoneally at 10 mg/kg as pilot work indicated a maximal, yet non-fatal, ˜15% bodyweight reduction at 10 mg/kg dose.
Tumor Growth and Metastasis: Tumor growth was monitored weekly as a measure of bioluminescence using the Xenogen IVIS Spectrum system (Caliper LS, Hopkinton, MA). Data acquisition and analysis was performed using the Living Image@ software (Caliper LS). Approximately 15 minutes prior to in vivo imaging, VM/Dk mice received an intraperitoneal injection of D-Luciferin (50 mg/kg; 88293, Thermo Fisher Scientific; Waltham, MA). Bioluminescent signal was obtained using the IVIS Lumina cooled CCD camera system in both prone and supine positions. As only the cancer cells were transfected with the luciferase gene, bioluminescent signal (photons/sec) of the whole animal was measured and tracked over time as an indicator of tumor burden and metastatic spread. At EOL, primary tumor, spleen, liver, and adipose tissue were gathered and saturated with D-Luciferin (10 μL D-Luciferin+PBS/g tissue at 5 mg D-Luciferin/mL PBS dilution) for 5 mins and imaged to determine tumor burden. Ascites fluid was imaged 15 minutes after resuspension with D-Luciferin (20 μL D-Luciferin+PBS/mL ascites fluid at 5 mg D-Luciferin/mL PBS dilution) to assess presence of circulating tumor cells. […]

Assay [1] can be described thus: Blood glucose and ketones after single KDE gavage at various dosages (Experiment 5a). To be noted: vs timepoint 0. The protocol: Metabolic Biomarkers: Blood glucose and R β-hydroxybutyrate were measured using Precision Xtra™ Blood Glucose & Ketone Monitoring System (Abbott Laboratories, Abbott Park, IL). Blood lactate concentration was measured using Lactate Plus Lactate Meter (Nova Biomedical). IGF-1 and Insulin were relabeled for blinded analysis and subsequently analyzed using Luminex 100 system (Luminex, Austin, TX) with R&D Systems Mouse 1-Plex Luminex Assay (R&D Systems, Minneapolis, MN) and Milliplex Mouse Multiplex Kit (Millipore, St. Charles, MO), respectively, using manufacturer's protocol.
Ketone Diester Mitigates Bodyweight Loss and Comorbidities in Inflammation-Induced Atrophy: Reductions in anorexia, tumor burden, and skeletal muscle atrophy all present ideal outcomes in the clinical environment of CACS. It should be noted, however, that altered anorexia and tumor burden can confound interpretation of the direct effects of the KDE on skeletal muscle atrophy. […] Due to the rapid nature of LPS-induced atrophy, various dosages of KDE were gavaged to determine their ability to rapidly shift systemic metabolism. […] To determine KDE's effect on cancer-independent catabolism, a maximal non-fatal LPS dose (10 mg/kg) was administered, followed by a single 4 mL/kg water (LPS) or KDE (KDE+LPS) gavage. KDE attenuated bodyweight loss 47% within the first 24 hours post-LPS administration (FIG. 7B).

Assay [2] in a line: KDE in LPS-induced atrophy, pair-fed animals (Experiment 5c). Conditions: single 4 mL/kg KDE gavage after 10 mg/kg LPS, 1 day post LPS, vs LPS group.
Setting [3] is: weekly, KDE+VM-M3 vs VM-M3 and Sham.

Take `CC(=O)CC(=O)OCCC(C)OC(=O)CC(C)=O` (stereo not drawn) [KDE, R/S 1,3-butanediol acetoacetate diester]: in the assay on VM-M3 cells (KDE+VM-M3 vs VM-M3), the blood lactate result is given as “No difference” and the “food intake (anorexic phenotype)” value was “attenuation of the predicted anorexic phenotype”. For the same compound, the bodyweight entry with VM-M3 cells (daily, KDE+VM-M3 vs VM-M3 and Sham) is on record as “lower bodyweight”. The compound also gave an ascites fluid weight with VM-M3 cells (week 3, KDE+VM-M3 group (VM-M3 alone 3.0 g, Sham 0 g)) of 1.9 g. Besides, in the assay with VM-M3 cells (week 3, KDE+VM-M3 vs VM-M3), the “ascites fluid (surrogate marker of metastatic spread)” value is recorded as “significantly reduced”, the “intraperitoneal adipose tissue weight (adipose tissue catabolism)” value is recorded as “unable to alter adipose tissue catabolism”, the “serum IGF-1” value was “did not alter circulating anabolic hormone levels” and the serum insulin entry was “did not alter circulating anabolic hormone levels”. For the same compound, in the assay with VM-M3 cells (week 3, KDE+VM-M3 vs VM-M3), the “skeletal muscle atrophy (Gastrocnemius, Soleus, Quadricep, Tibialis Anterior, Hind Limb weights)” value is recorded as “did attenuate muscle atrophy”. In the assay on VM-M3 cells (week 3, across groups), the “cardiac tissue weight set to baseline bodyweight” value was “unaltered”. In addition, the “whole animal tumor burden (in vivo bioluminescence)” value in the assay on VM-M3 cells (weekly imaging, KDE+VM-M3 vs VM-M3) is reported as “non-significant reductions”. In the assay with VM-M3 cells (setting [3]), the blood glucose result is reported as “reductions in blood glucose” and the circulating ketones entry is reported as “sustained elevations”. Besides, in assay [1] (4 mL/kg KDE gavage), the blood glucose result was “significant and rapid reductions”; the blood ketones entry is given as “elevations in blood ketones”. Besides, in assay [1] (5 mL/kg KDE gavage), the blood glucose entry was “significant and rapid reductions”; the blood ketones result is “elevations in blood ketones”. The “reduction of bodyweight loss” value in assay [2] is given as 28%.
